The values that follow come from patent EP0083600B1, “Use of alkaloid derivatives for the manufacture of a medicament for the strengthening of the immune system and for the treatment of viral, bacterial and fungal infections” (Nowicky, Wassyl, priority 1981, dated 1983).

This data set can be described thus: Biological test of toxicity (lethal dose). Format: in vivo. Particulars: biologischer Test. As to the method: Weiterhin ließ sich nachweisen, daß in dem Präparat Ukrain (hier erfolgte die Umsetzung der Alkaloide von Chelidonium majus L. mit Thiophosphorsäuretriaziridid, gen. Thio-TEPA) keine freien Äthylengruppen des Thio-TEPA vorliegen. Dieser Nachweis wurde erbracht: • 1. durch eine chemische Analyse und • 2. dadurch, daß beim biologischen Test die Dosis letalis für Thio-TEPA bei 1 mg/kg Körpergewicht liegt, für das Präparat jedoch eine Dosis von 250 mg/kg Körpergewicht nicht toxisch ist.

Compound `S=P(N1CC1)(N1CC1)N1CC1` [Thio-TEPA, Thiophosphorsäuretriaziridid] yielded a Dosis letalis of 1 mg/kg Körpergewicht.
